Test results: article PMC6222789, “CF3-Substituted Mollugin 2-(4-Morpholinyl)-ethyl ester as a Potential Anti-inflammatory Agent with Improved Aqueous Solubility and Metabolic Stability” (Molecules : A Journal of Synthetic Chemistry and Natural …, 2018)

Assays:
[1] = Metabolic stability, dog liver microsomes; assay type: in vitro ADME; conditions: 30 min, 1 μM
Description: (§1) Pooled human liver microsomes (150 donor) and dog, rat, mouse liver microsomes were obtained from BD Gentest Co. (Woburn, MA, USA). NADPH regeneration system was obtained from Promega. S-Mephenytoin, 4-hydroxymephenytoin, and 1’-hydroxymidazolam were purchased from Ultrafine Chemical Co. (Manchester, UK). All other chemicals and solvents were of the highest grade available. The metabolic stability assay was performed by incubation of human or selected animal liver microsomes (most often dog, rat and mouse), at 37 °C with a test compound at a final concentration of 1 μM, in the presence of 0.5 mg/mL microsomal protein and NADPH regeneration system, in a total volume of 100 μL of 100 mM phosphate buffer, pH 7.4. The incubation was started by the addition of NADPH regeneration system and terminated with 40 μL of ice-cold acetonitrile at 0 and 30 min. Precipitated proteins were removed by centrifugation at 10,000× g for 5 min at 4 °C. Aliquots of the supernatant were injected onto an LC-MS/MS system. Incubations terminated prior to the addition of NADPH regeneration system (time point 0 min) were used as standards, defined as 100%. Percent of the parent compound remaining was calculated by comparing peak area.

[2] = test system: TNF-α-induced adhesion of U937 monocytic cells to HT-29 cells; test: TNF-α-induced colonic epithelial cell adhesion assay; assay type: cell-based, human; conditions: for inhibition at 10 µM: Homo sapiens, Epithelial cell, U937 adhesion to HT-29 cells, TNF-α-induced; for inhibition of TNF-α-induced monocyte-epithelial adhesion: 10 μM
Description: (§2) Synthesized mollugin derivatives were subjected to the colonic epithelial cell adhesion assay, which mimics the initial stage of colon inflammation. The inhibition of TNF-α-induced or IL-6-induced adhesion of U937 monocytic cells to HT-29 cells in 10 μM solution of synthesized molecules was measured, and the results are summarized in Table 1 and Table 2. Mesalazine (2), a commercially available medication for the treatment of IBD, and mollugin were chosen as assay positive controls.
(§3) HT-29 human colonic epithelial cells and U937 human pre-monocytic cells were grown in RPMI 1640 medium supplemented with 10% FBS, 100 IU/mL penicillin, and 100 µg/mL streptomycin in a humidified incubator under 5% CO2/95% air.
(§4) U937 monocytic cell adhesion to colonic epithelial cells was evaluated using human U937 pre-monocytic cells, which were prelabeled with 2′,7′-bis(2-carboxyethyl)-5(6)-carboxyfluorescein acetoxymethyl ester (BCECF/AM, 10 μg/mL) for 1 h at 37 °C. HT-29 cells cultured in 24-well plates were pretreated with test compound, 5-ASA, or tofacitinib for 1 h prior to incubation with TNF-α (10 ng/mL) and IL-6 (5 ng/mL) for an additional 3 h. Cells were then co-incubated with BCECF/AM-prelabeled U937 cells (1 × 10^6 cells/well) for 30 min at 37 °C. Non-adhering U937 cells were removed, and the HT-29 cells and adherent U937 cells were washed twice with PBS. Images were captured and processed with a Nikon ECLIPSE TE2000-U microscope and NIS-Elements F software (Nikon, Tokyo, Japan). For quantitative analysis, other sets of cells were lysed in 0.1% Triton X-100 in Tris (0.1 M), and the fluorescence was measured using a fluorescence-detecting microplate reader (Promega , Madison, WI, USA) at […]. Experiments were performed in triplicate and repeated at least three times independently.

[3] = Metabolic stability, mouse liver microsomes; assay type: in vitro ADME; conditions: 30 min, 1 μM
Description: as §1

[4] = Metabolic stability, human liver microsomes; assay type: in vitro ADME; conditions: 1 μM
Description: as §1

[5] = test system: IL-6-induced adhesion of U937 monocytic cells to HT-29 cells; test: IL-6-induced colonic epithelial cell adhesion assay; assay type: cell-based, human; conditions: for inhibition at 10 µM: Homo sapiens, Epithelial cell, U937 adhesion to HT-29 cells, IL-6-induced; for inhibition of IL-6-induced monocyte-epithelial adhesion: 10 μM
Description: as §2, §3, §4

[6] = Metabolic stability, rat liver microsomes; assay type: in vitro ADME; conditions: 30 min, 1 μM
Description: as §1

[7] = Plasma stability, rat plasma; assay type: in vitro ADME; conditions: 2 h, 37 °C, 1 μM
Description: (§5) The plasma stability assay was performed by incubation of human or rat plasma with a test compound in a final concentration of 1 μM for 120 min at 37 °C. The incubation was terminated by addition of 40 μL of ice-cold acetonitrile and vortexing for 5 min. The precipitated proteins were removed by centrifugation at 14,000× g for 5 min at 4 °C. Aliquots of the supernatant were injected onto a Shimadzu Nexera XR LC system. Percentages of the parent compound remaining were calculated by comparing peak areas using the Xcalibur software (version 1.6.1, Waltham, MA, USA).

[8] = Plasma stability, human plasma; assay type: in vitro ADME; conditions: 37 °C, 1 μM
Description: as §5

## CNC(=O)c1c2c(c3ccccc3c1O)OC(C)(C)C=C2 [6l, 6-Hydroxy-N,2,2-trimethyl-2H-benzo[h]chromene-5-carboxamide]
[1]
  Metabolic Stability (% Remain, 30 min) Dog: 1 % Remain
[2]
  inhibition at 10 µM: 45.4 ± 4.7%
[3]
  Metabolic Stability (% Remain, 30 min) Mouse: 2 % Remain
[4]
  Metabolic Stability (% Remain, 30 min) Human: 13 % Remain
[5]
  inhibition at 10 µM: 12.2 ± 4.4%
[6]
  Metabolic Stability (% Remain, 30 min) Rat: 1 % Remain

## Cc1ccc2c3c(c(C(=O)OCCN4CCOCC4)c(O)c2c1)C=CC(C)(C)O3 [15b, 2-Morpholinoethyl 6-hydroxy-2,2,8-trimethyl-2H-benzo[h]chromene-5-carboxylate]
[7]
  Plasma Stability (% Remain, 2 h) Rat: 55 % Remain
[1]
  Metabolic Stability (% Remain, 30 min) Dog: 57 % Remain
[8]
  Plasma Stability (% Remain, 2 h) Human: 100 % Remain
[2]
  inhibition at 10 µM: 24.9 ± 3.5%
[3]
  Metabolic Stability (% Remain, 30 min) Mouse: 18 % Remain
[4]
  Metabolic Stability (% Remain, 30 min) Human: 41 % Remain
[5]
  inhibition at 10 µM: 54.3 ± 6.5%
[6]
  Metabolic Stability (% Remain, 30 min) Rat: 9 % Remain

## CC1(C)C=Cc2c(C(=O)OCCc3ccccn3)c(O)c3ccccc3c2O1 [6j, 2-(Pyridin-2-yl)ethyl 6-hydroxy-2,2-dimethyl-2H-benzo[h]chromene-5-carboxylate]
[2]
  inhibition at 10 µM: 43.1 ± 6.2%
[5]
  inhibition at 10 µM: 33.6 ± 5.9%

## COC(=O)c1c2c(c3ccc(C(F)(F)F)cc3c1O)OC(C)(C)C=C2 [14c, Methyl 6-hydroxy-2,2-dimethyl-8-(trifluoromethyl)-2H-benzo[h]chromene-5-carboxylate]
[7]
  Plasma Stability (% Remain, 2 h) Rat: 10 % Remain
[1]
  Metabolic Stability (% Remain, 30 min) Dog: 22 % Remain
[8]
  Plasma Stability (% Remain, 2 h) Human: 97 % Remain
[2]
  inhibition at 10 µM: 63.2 ± 10.8%
[3]
  Metabolic Stability (% Remain, 30 min) Mouse: 70 % Remain
[4]
  Metabolic Stability (% Remain, 30 min) Human: 100 % Remain
[5]
  inhibition at 10 µM: 39.3 ± 5.6%
[6]
  Metabolic Stability (% Remain, 30 min) Rat: 90 % Remain

## COC(=O)c1c2c(c3cc(F)ccc3c1O)OC(C)(C)C=C2 [14d, Methyl 9-fluoro-6-hydroxy-2,2-dimethyl-2H-benzo[h]chromene-5-carboxylate]
[2]
  inhibition at 10 µM: 24.9 ± 8.1%
[5]
  inhibition at 10 µM: 28 ± 5.6%

## CC1(C)C=Cc2c(C(=O)OCCN3CCCC3)c(O)c3ccccc3c2O1 [6c, 2-(Pyrrolidin-1-yl)ethyl 6-hydroxy-2,2-dimethyl-2H-benzo[h]chromene-5-carboxylate]
[2]
  inhibition of TNF-α-induced monocyte-epithelial adhesion: good % inhibition
  inhibition at 10 µM: 39.7 ± 5.7%
[5]
  inhibition of IL-6-induced monocyte-epithelial adhesion: reduced % inhibition
  inhibition at 10 µM: 12.4 ± 2.1%

## CN(C)CCOC(=O)c1c2c(c3ccccc3c1O)OC(C)(C)C=C2 [6a, 2-(Dimethylamino)ethyl 6-hydroxy-2,2-dimethyl-2H-benzo[h]chromene-5-carboxylate]
[1]
  Metabolic Stability (% Remain, 30 min) Dog: 2 % Remain
[2]
  inhibition at 10 µM: 38 ± 4.9%
[3]
  Metabolic Stability (% Remain, 30 min) Mouse: 3 % Remain
[4]
  Metabolic Stability (% Remain, 30 min) Human: 6 % Remain
[5]
  inhibition at 10 µM: 35.5 ± 4.3%
[6]
  Metabolic Stability (% Remain, 30 min) Rat: 2 % Remain

## CC1(C)C=Cc2c(C(N)=O)c(O)c3ccccc3c2O1 [6k, 6-Hydroxy-2,2-dimethyl-2H-benzo[h]chromene-5-carboxamide]
[1]
  Metabolic Stability (% Remain, 30 min) Dog: 6 % Remain
[2]
  inhibition at 10 µM: 42.6 ± 4.2%
[3]
  Metabolic Stability (% Remain, 30 min) Mouse: 2 % Remain
[4]
  Metabolic Stability (% Remain, 30 min) Human: 10 % Remain
[5]
  inhibition at 10 µM: 39.1 ± 4.7%
[6]
  Metabolic Stability (% Remain, 30 min) Rat: 2 % Remain

## CC1(C)C=Cc2c(C(=O)OCCN3CCOCC3)c(O)c3cc(F)ccc3c2O1 [15a, 2-Morpholinoethyl 8-fluoro-6-hydroxy-2,2-dimethyl-2H-benzo[h]chromene-5-carboxylate]
[7]
  Plasma Stability (% Remain, 2 h) Rat: 91 % Remain
[1]
  Metabolic Stability (% Remain, 30 min) Dog: 10 % Remain
[8]
  Plasma Stability (% Remain, 2 h) Human: 100 % Remain
[2]
  inhibition at 10 µM: 36.6 ± 9.4%
[3]
  Metabolic Stability (% Remain, 30 min) Mouse: 10 % Remain
[4]
  Metabolic Stability (% Remain, 30 min) Human: 78 % Remain
[5]
  inhibition at 10 µM: 61.1 ± 10.9%
[6]
  Metabolic Stability (% Remain, 30 min) Rat: 9 % Remain

## CN1CCN(C(=O)c2c3c(c4ccccc4c2O)OC(C)(C)C=C3)CC1 [6n, (6-Hydroxy-2,2-dimethyl-2H-benzo[h]chromen-5-yl)(4-methylpiperazin-1-yl)methanone]
[2]
  inhibition at 10 µM: 37.4 ± 3.3%
[5]
  inhibition at 10 µM: 34.2 ± 7.9%

## COC(=O)c1c2c(c3ccc(C)cc3c1O)OC(C)(C)C=C2 [14b, Methyl 6-hydroxy-2,2,8-trimethyl-2H-benzo[h]chromene-5-carboxylate]
[7]
  Plasma Stability (% Remain, 2 h) Rat: 1 % Remain
[1]
  Metabolic Stability (% Remain, 30 min) Dog: 4 % Remain
[8]
  Plasma Stability (% Remain, 2 h) Human: 100 % Remain
[2]
  inhibition at 10 µM: 29.8 ± 7.2%
[3]
  Metabolic Stability (% Remain, 30 min) Mouse: 19 % Remain
[4]
  Metabolic Stability (% Remain, 30 min) Human: 88 % Remain
[5]
  inhibition at 10 µM: 23.4 ± 2.5%
[6]
  Metabolic Stability (% Remain, 30 min) Rat: 51 % Remain

## CCN1CCN(C(=O)c2c3c(c4ccccc4c2O)OC(C)(C)C=C3)CC1 [6o]
[2]
  inhibition of TNF-α-induced monocyte-epithelial adhesion: good % inhibition
  inhibition at 10 µM: 46.2 ± 5.4%
[5]
  inhibition of IL-6-induced monocyte-epithelial adhesion: reduced % inhibition
  inhibition at 10 µM: 9.4 ± 2.1%

## CCNC(=O)c1c2c(c3ccccc3c1O)OC(C)(C)C=C2 [6m, N-Ethyl-6-hydroxy-2,2-dimethyl-2H-benzo[h]chromene-5-carboxamide]
[2]
  inhibition at 10 µM: 38.4 ± 5.7%
[5]
  inhibition at 10 µM: 25.8 ± 3.4%

## CC1(C)C=Cc2c(C(=O)OCCN3CCOCC3)c(O)c3ccc(F)cc3c2O1 [15d, 2-Morpholinoethyl 9-fluoro-6-hydroxy-2,2-dimethyl-2H-benzo[h]chromene-5-carboxylate]
[7]
  Plasma Stability (% Remain, 2 h) Rat: 81 % Remain
[1]
  Metabolic Stability (% Remain, 30 min) Dog: 30 % Remain
[8]
  Plasma Stability (% Remain, 2 h) Human: 94 % Remain
[2]
  inhibition at 10 µM: 47 ± 8.9%
[3]
  Metabolic Stability (% Remain, 30 min) Mouse: 11 % Remain
[4]
  Metabolic Stability (% Remain, 30 min) Human: 48 % Remain
[5]
  inhibition at 10 µM: 75.6 ± 11.5%
[6]
  Metabolic Stability (% Remain, 30 min) Rat: 8 % Remain

## COC(=O)c1c2c(c3ccc(F)cc3c1O)OC(C)(C)C=C2 [14a, Methyl 8-fluoro-6-hydroxy-2,2-dimethyl-2H-benzo[h]chromene-5-carboxylate]
[7]
  Plasma Stability (% Remain, 2 h) Rat: 2 % Remain
[1]
  Metabolic Stability (% Remain, 30 min) Dog: 52 % Remain
[8]
  Plasma Stability (% Remain, 2 h) Human: 39.5 % Remain
[2]
  inhibition at 10 µM: 36.1 ± 7.6%
[3]
  Metabolic Stability (% Remain, 30 min) Mouse: 82 % Remain
[4]
  Metabolic Stability (% Remain, 30 min) Human: 52 % Remain
[5]
  inhibition at 10 µM: 59.4 ± 7.4%
[6]
  Metabolic Stability (% Remain, 30 min) Rat: 78 % Remain

## CN(C)CCCOC(=O)c1c2c(c3ccccc3c1O)OC(C)(C)C=C2 [6b, 3-(Dimethylamino)propyl 6-hydroxy-2,2-dimethyl-2H-benzo[h]chromene-5-carboxylate]
[1]
  Metabolic Stability (% Remain, 30 min) Dog: 9 % Remain
[2]
  inhibition at 10 µM: 39.6 ± 2.9%
[3]
  Metabolic Stability (% Remain, 30 min) Mouse: 8 % Remain
[4]
  Metabolic Stability (% Remain, 30 min) Human: 12 % Remain
[5]
  inhibition at 10 µM: 34.8 ± 4.1%
[6]
  Metabolic Stability (% Remain, 30 min) Rat: 7 % Remain
